Measured values from US11021529B2, “Antimicrobial constructs and uses thereof” (priority 2017, dated 2021).
In brackets after ≈: the same amount, converted by molar mass. Where two headings read alike, the source gives them in different places.

Legend:
Assay type in all cases: cell-based
[1] = test system: P. aeruginosa strain PA14; experiment: MIC in wild-type P. aeruginosa strain PA14 (Table 3); conditions: Pseudomonas aeruginosa
[2] = test system: P. aeruginosa strain PA01; experiment: MIC in wild-type P. aeruginosa strain PA01 (Table 3); conditions: Pseudomonas aeruginosa
[3] = test system: P. aeruginosa strain Z61; experiment: MIC in hyperpermeable P. aeruginosa strain Z61 (Table 3); conditions: Pseudomonas aeruginosa
[4] = test system: P. aeruginosa; experiment: Checkerboard assays (fractional inhibitory concentration indices) with WLBU2 potentiator; conditions: drug combined with WLBU2 potentiator (W2-grafted dextran)
Source text: In some embodiments, checkerboard assays can be used to determine if two antimicrobial agents have synergy, additive, or antagonistic effects when dosed together. Checkboard assays determine the interaction and potency of two test articles when used concurrently. Using Lorian methodology, the effect on potency of the combination of antimicrobials in comparison to their individual activities, represented as the Fractional Inhibitory Concentration (FIC) index value. To quantify the interactions between the antimicrobials being tested, the FIC index (the combination of antimicrobials that produced the greatest change from the individual antimicrobial's MIC) value is calculated for each strain and antimicrobial combination: (A/MICA)+(B/MICB)=FICA+FICB=FIC Index, where A and B are the MIC of each antimicrobial in combination (in a single well), and MICA and MICB are the MIC of each antimicrobial individually.

[5] = test system: P. aeruginosa strain PA01; experiment: Growth (MIC) assay in P. aeruginosa strain PA01; conditions: peptide concentration range 0-5 μM
Experimental: The minimal inhibitory concentrations (MIC) were measured in P. aeruginosa and cell viability in mammalian cells at a peptide concentration range between 0-5 μM. Toxicity was evaluated in NIH 3T3 mouse fibroblasts and Neuro-2a neuroblastoma. To negatively select against tandem peptides that may cause red blood lysis when administered in animals, the peptides were also screened in a hemolysis assay. In the range of concentrations tested, no membrane-active peptide had inhibitory activity against bacteria when not in tandem with dKK (FIG. 2), supporting the rationale of the tandem peptide architecture. At these concentrations, dKK alone also had no activity against P. aeruginosa (FIG. 2). Since it is advantageous to identify antibacterial agents which have narrow-spectrum activity, antibacterial efficacy against other gram-negative bacterial species (E. coli) and a gram-positive bacterial species (S. aureus; FIG. 1B) was also assessed. The best performing tandem peptide was lactoferrin-dKK (LACT-dKK). Lactoferrin peptide ([…], SEQ ID NO: 1) is from a protein in the transferrin family with known membrane interactions with bacteria. […]
For each experiment, P. aeruginosa strain PA01 was started from a frozen glycerol stock and cultured overnight. […] The number of colony forming units (CFU) per mL was determined by titering cultures with known absorbance values. […]

[6] = test system: P. aeruginosa; experiment: Super-resolution microscopy of membrane association and permeabilization; conditions: fluorescently labeled peptide or potentiator
Source text: In order to identify peptides which would improve the penetration of small molecules into bacteria library of 30 peptide-linezolid conjugates was synthesized using antimicrobial peptides curated from literature. Linezolid is a small molecule that is normally unable to kill gram-negative bacteria due to its inability to cross the membrane. The peptide-linezolid library was screened in a growth inhibition assay in P. aeruginosa. […] WLBU2 is part of a family of helical cationic peptides that were designed to specifically kill P. aeruginosa. Other members of this peptide family, WLBU1 and LBU2, were synthesized in tandem with P. aeruginosa targeting peptides (P9b and EKR) and conjugated to linezolid. These peptide-drug conjugates were evaluated for their ability to inhibit P. aeruginosa and cross validated for mammalian cell toxicity.
To visualize membrane permeabilization of WLBU2, P. aeruginosa was incubated with Alexa Fluor 488-labeld WLBU2 potentiator for 15 minutes and subsequently washed 2 times with phosphate buffer solution to remove unbound potentiator. Bacteria were then stained with a membrane dye.

`O=C(O)c1cn(C2CC2)c2cc(N3CCNCC3)c(F)cc2c1=O` [Ciprofloxacin] was tested, and the MIC ([1]; P. aeruginosa strain PA14, read-out: MIC) was 0.5 µg/mL (≈ 1.51 µM), the MIC ([2]; P. aeruginosa strain PA01, read-out: MIC) was 2 µg/mL (≈ 6.04 µM) and the MIC [3] was under 0.25 µg/mL.
`CC(=O)NC[C@H]1CN(c2ccc(N3CCOCC3)c(F)c2)C(=O)O1` [Linezolid] showed an MIC ([1]; PA14) of over 128 µg/mL, an MIC ([2]; PA01) of over 128 µg/mL and an MIC [3] of 8 µg/mL (≈ 23.7 µM).
With `CO[C@@H]1[C@@H](OC(N)=O)[C@@H](O)[C@H](Oc2ccc3c(O)c(NC(=O)c4ccc(O)c(CC=C(C)C)c4)c(=O)oc3c2C)OC1(C)C` [novobiocin] the “fractional inhibitory concentration indices (FICIs), interaction with WLBU2 potentiator” value [4] was “synergy”.
`C=C[C@]1(C)C[C@@H](OC(=O)CS[C@@H]2C[C@H]3CC[C@@H](C2)N3C)[C@]2(C)[C@H](C)CC[C@]3(CCC(=O)[C@H]32)[C@@H](C)[C@@H]1O` [retapamulin] was tested, and the “fractional inhibitory concentration indices (FICIs), interaction with WLBU2 potentiator” value [4] was “synergy”.
With “D(KLAKLAK)2 (KLAKLAKKLAKLAK; D-amino acids; Synthetic - antimicrobial peptide comprised of D-amino acids) [dKK]” the “inhibitory activity against bacteria / P. aeruginosa” value [5] was “no activity”.
For “RRWVRRVRRWVRRVVRVVRRWVRR (Synthetic WLBU2)”, the “localization in P. aeruginosa (super-resolution microscopy)” value [6] was “able to associate with the membrane and localize to the cytosol”.
